For test [1], the target named is T1, Histone deacetylase (Homo sapiens) (UniProt Q13547+O15379+Q9UBN7+Q92769+Q9UQL6+Q8WUI4+Q9BY41+Q96DB2+P56524+Q9UKV0+Q969S8). The note with it: HeLa, at 0.1 µM.
Description: Inhibition of HDAC in human HeLa cell extracts using Fluor de Lys as substrate at 0.1 uM by fluorescence assay
Test [2] deals with T1, Histone deacetylase (Homo sapiens). Particulars: HeLa, at 0.01 µM.
Description: Inhibition of HDAC in human HeLa cell extracts using Fluor de Lys as substrate at 0.01 uM by fluorescence assay
Test [3] shares this target. Particulars: HeLa, at 1 µM.
Description: Inhibition of HDAC in human HeLa cell extracts using Fluor de Lys as substrate at 1 uM by fluorescence assay
In test [4] the target is Histone deacetylase. Put plainly: Inhibition of HDAC in human HeLa cell extracts using Fluor de Lys as substrate by fluorescence assay. The format is protein assay.
Test [5] relates to HCT-116. Nature of the test: Antiproliferative activity against human HCT116 cells after 5 days by Alamar Blue assay. The format is functional, cell-based. Particulars: HCT-116, 120 h. On the technique in general: Alamar Blue is a resazurin reagent that responds to reducing activity.

pIC50: −log10 of the molar value.

For `O=C(CCCN1C(=O)c2ccccc2Cc2ccccc21)NO`, the inhibition in test [1], in test [2] and in test [3] was less than 20% in each case.
For the compound `O=C(CCCCCN1C(=O)c2ccccc2C(O)c2ccccc21)NO` (centres undefined), the IC50 (usually the concentration at which inhibition is half-maximal) in test [4] is 60 nM. Moreover, in test [5], the pIC50 (usually the IC50 on a negative log10 scale, so that one unit is a factor of ten) is 5.70. For the same compound, the figures for the inhibition in test [1], in test [2] and in test [3] were 58%, 21% and 81%, respectively.
With `O=C(CCCCN1C(=O)c2ccccc2Cc2ccccc21)NO`, the values for the inhibition in test [1], in test [2] and in test [3] were less than 20%, less than 20% and 29%, respectively.
As to `O=C(CCCCCn1c(=O)c2ccccc2c(=O)c2ccccc21)NO`, the IC50 in test [4] is 153 nM. Also, the negative-log IC50 (pIC50) in test [5] was less than 6.00. Further, the inhibition (commonly the percentage by which the read-out fell short of the control) in test [1] is 47%; in test [2] it was 11%; in test [3], 77%.
The matching figures for `O=C(CCCCCN1C(=O)c2ccccc2C(F)(F)c2ccccc21)NO`: 111 nM, 6.22, 50%, less than 20% and 78%.
On to `O=C(CCCCCN1C(=O)c2ccccc2Cc2ccccc21)NO`, for which the IC50 in test [4] came out at 42 nM. Besides, the pIC50 in test [5] is 6.15. Further, the inhibition was found to be 67% in test [1], 21% in test [2] and 84% in test [3].
Turning to `COC1(OC)c2ccccc2C(=O)N(CCCCCC(=O)NO)c2ccccc21`, the inhibition in test [1] was less than 20%; in test [2] it was less than 20%; in test [3] it was 42%.
The compound `O=C(CCCCCN1C(=O)c2ccccc2C(F)c2ccccc21)NO` (centres undefined) registered an IC50 in test [4] of 53 nM. This compound also showed a negative logarithm of the IC50 (pIC50) in test [5] of 5.80. Also, the values for the inhibition in test [1], in test [2] and in test [3] were 62%, less than 20% and 84%, respectively.

The values above are taken from ChEMBL document CHEMBL2062430, “Set-up of a new series of HDAC inhibitors: the 5,11-dihydrodibenzo[b,e]azepin-6-ones as privileged structures” (Bioorg Med Chem Lett, 2012).
